# Measured values: patent publication US20060128744A1, “Use of 5-HT6 agonist for the treatment and prevention of neurodegenerative disorders” (Wyeth, priority 2004, published 2006)
# Legend:
# [1] = target: T1, human cloned 5-HT6 receptors (Homo sapiens, UniProt P50406); test: 5-HT6 binding affinity, [3H]-LSD displacement in membranes of Hela cells
# T1 construct: expressed in transfected cells; host or cells: HeLa cells (membrane preparation)
# Procedure: The affinity of test compounds for the serotonin 5-HT6 receptor is evaluated in the following manner. Cultured Hela cells expressing human cloned 5-HT6 receptors are harvested and centrifuged at low speed (1,000×g) for 10.0 min to remove the culture media. The harvested cells are suspended in half volume of fresh physiological phosphate buffered saline solution and recentrifuged at the same speed. This operation is repeated. The collected cells are then homogenized in ten volumes of 50 mM Tris.HCl (pH 7.4) and 0.5 mM EDTA. The homogenate is centrifuged at 40,000×g for 30.0 min and the precipitate is collected. The obtained pellet is resuspended in 10 volumes of Tris.HCl buffer and recentrifuged at the same speed. The final pellet is suspended in a small volume of Tris.HCl buffer and the tissue protein content is determined in aliquots of 10-25 μl volumes. […] The volume of the suspended cell membranes is adjusted to give a tissue protein concentration of 1.0 mg/ml of suspension. […]
# The bound complex caught on the filter disk is allowed to air dry and the radioactivity is measured in a Packard TopCount® equipped with six photomultiplier detectors, after the addition of 40.0 μl Microscint®-20 scintillant to each shallow well.
# Binding in the presence of varying concentrations of test compound is expressed as a percentage of specific binding in the absence of test compound. […]
# [2] = target: T2, human 5-HT6 receptor stabily transfected into HELA cells (Homo sapiens, UniProt P50406); test: 5-HT6 agonist activity using cAMP accumulation; type: cell-based
# T2 construct: expressed in transfected cells; host or cells: HeLa cells, stably transfected
# Procedure: Upon initiation of the assay, the media from cell maintenance is aspirated and cells are preincubated at 37° C. for 15 mins. in KREBS buffer. Following this primary incubation, the buffer is aspirated and an additional incubation is performed at 37° C. for 5 mins. in KREBS buffer containing 500 uM IBMX (3-isobutyl-1-methylxanthine). […] The assay is terminated by the addition of 0.5M perchloric acid. […] Data are analyzed graphically with GraphPad Prism (GraphPad Software, San Diego, Calif.).
# [3] = test system: neuron cultures from E16 rat embryos; settings: 72 h
# Procedure: In this evaluation neuron cultures are prepared from E16 rat embryos. […] After a 72 h period, neuronal survival is determined by a neurofilament ELISA.
# The data are expressed as total neurofilament content.
# [4] = test system: brain derived neurotrophic factor (BDNF) protein in cortical neuron cultures; test: BDNF protein levels in cultured cortical neurons, sandwich ELISA; type: cell-based, rat; settings: 72 h in culture
# Procedure: In this evaluation cortical neuron cultures are prepared from E16 rat embryos and plated on pre-coated 10 cm Petri dishes. […] Levels of brain derived neurotrophic factor (BDNF) protein were measured after a 72 h period by lysing the cells and using a BDNF sandwich ELISA. More specifically, ELISA plates were coated with an anti-BDNF monoclonal antibody. Nonspecific binding was blocked and 50 μg of sample protein was added. A second anti-BDNF antibody was added and incubated. An anti-IgY antibody conjugated with horseradish peroxidase was added and incubated. A TMB solution was added and the colorimetric reaction was measured in a plate reader (absorbance of 450 nm). BDNF levels are quantified after 72 h in culture.
# [5] = test system: cortical neuron cultures from E16 rat embryos; settings: 72 h
# Procedure: In this evaluation cortical neuron cultures are prepared from E16 rat embryos. […] Neurite outgrowth is determined after a 72 h period by staining cells with a tubulin antibody (TUJ-1) and measuring neurite length with the Cellomics ArrayScan, using the Enhanced Neurite Outgrowth (ENO) algorithm. The data are expressed as total neurite length.
# [6] = test system: cerebellar granule neurons; test: Potassium withdrawal-induced apoptosis in cerebellar granule neurons, DNA fragmentation ELISA; type: cell-based, rat; settings: 5 mM K+, 24 h
# Procedure: (§1) Cerebella isolated from P7 rat pup brains are cut into 1 mm pieces and transferred to a tube containing 0.3 mg/ml trypsin in HBSS. Following enzymatic digestion, the tissue is mechanically triturated. The supernatant is collected and centrifuged at 1200 rpm for 10 minutes. The resultant pellet is resuspended in complete media (Neurobasal, […], 0.5 mM L-glutamine, 100 U/ml penicillin, 100 μg/ml streptomycin, 10% FBS) and plated at a density of 0.5×10^6 cells/well in 24-well plates. After 24 h, media is exchanged with complete serum-free medial (Neurobasal, […], 0.5 mM L-glutamine, 100 U/ml penicillin, 100 μg/ml streptomycin, B-27 supplement).
# Potassium withdrawal, i.e. replacement of […] in the CGN culture medium is a well established model of neuronal cell death by apoptosis (T. M. Miller and E. M. Johnson, Journal of Neuroscience, (1996) 16(23), pp7487-7495). Cultures are maintained for 7 days prior to experimentation. Complete media containing 25 mM K^+ is exchanged with complete media containing 5 mM K^+. […] After 24 h, apoptotic cell death is determined by measuring DNA fragmentation via ELISA. Apoptotic cell death is expressed as % apoptosis.
# [7] = test system: cerebellar granule neurons; test: Oxygen glucose deprivation (OGD) in cerebellar granule neurons, LDH release; type: cell-based, rat; settings: 4 h OGD, 24 h recovery
# Procedure: as §1
# This is a well characterized model of ischemia-like neuronal injury involving glutamate-induced excitotoxicity (A. Kaasik, et al, Neuroscience (2001) 102, pp427-432). Cultures are maintained for 14 days in vitro prior to experimentation. […] Following the 4 h OGD, deoxygenated buffer is exchanged with complete media. […] At the end of the 24-h period, cell death is determined by measuring lactate dehydrogenase (LDH) released into the media and is expressed as a percent of cell death. The results are shown in FIG. 3 and are presented as means±SD from 5 experiments. Sham bar represents results obtained with cultures subjected to manipulations and changes of culture media without OGD or drug treatment.
# T1 sequence (P50406 whole entry): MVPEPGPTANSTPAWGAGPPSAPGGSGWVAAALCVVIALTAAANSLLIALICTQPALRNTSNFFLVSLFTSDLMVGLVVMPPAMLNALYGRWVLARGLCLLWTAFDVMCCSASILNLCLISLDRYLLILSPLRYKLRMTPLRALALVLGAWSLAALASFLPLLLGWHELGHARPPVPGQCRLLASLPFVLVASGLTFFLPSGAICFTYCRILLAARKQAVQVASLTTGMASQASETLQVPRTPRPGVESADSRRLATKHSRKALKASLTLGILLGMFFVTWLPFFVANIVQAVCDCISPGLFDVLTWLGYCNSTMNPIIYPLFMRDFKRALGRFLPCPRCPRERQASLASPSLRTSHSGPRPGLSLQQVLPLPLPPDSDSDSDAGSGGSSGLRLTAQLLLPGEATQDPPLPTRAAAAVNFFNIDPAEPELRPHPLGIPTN
# T2 sequence (P50406 whole entry): as above
structure (smiles),measurement,setting,value
"COc1ccc(OC)c(S(=O)(=O)c2cn(CCN)c3ncccc23)c1 [Test Compound A, (2-{3-[(2,5-dimethoxyphenyl)sulfonyl]-1H-pyrrolo[2,3-b]pyridin-1-yl}ethyl)amine]",Ki,[1],3.6 nM
same,Emax,[2],95%
"CN(C)CCn1cc(S(=O)(=O)c2cccc(F)c2)c2cccnc21 [Test Compound B, N-(2-{3-[(3-fluorophenyl)sulfonyl]-1H-pyrrolo[2,3-b]pyridin-1-yl}ethyl)-N,N-dimethylamine]",neurofilament content compared to vehicle treated controls,[3],increases the neurofilament content
same,BDNF protein levels compared to vehicle treated control,[4],significantly increased BDNF protein levels
same,total neurite length compared to vehicle treated controls,[5],increased total neurite length
NCCc1cn(S(=O)(=O)c2c(Cl)nc3sccn23)c2ccccc12 [Test Compound C],reduction of apoptotic cell death,[6]; 0.3 μM,50%
same,protection from apoptosis,[6]; 3.0 μM,almost total protection from apoptosis
same,effect on amount of fragmented DNA (measure of apoptosis),[6],"significantly, and dose dependently, attenuated"
same,reduction of neuronal death,[7]; 1 μM,50%
same,effect on OGD-induced neuronal cell death,[7]; 1 h pretreatment,dose-dependent reduction of neuronal cell death
same,lowest concentration providing significant protection against OGD-induced cell death,[7]; LDH release,10 nM
